logD and half-life data for 14 compounds are collected here from ChEMBL document CHEMBL1759966, “Design and optimisation of orally active TLR7 agonists for the treatment of hepatitis C virus infection” (Bioorg Med Chem Lett, 2011).

One series can be described thus: Lipophilicity, log D of the compound. The conditions noted are these: octanol/water. Format: physicochemical.
In turn, `Nc1nc(C(F)(F)F)cc2c1[nH]c(=O)n2Cc1ccccc1` came in with a logD of 3.3.

`COCCCn1c(=O)[nH]c2c(N)nc(C(F)(F)F)cc21` showed a logD of 1.9. For the compound `Nc1nc(C(F)(F)F)cc2c1[nH]c(=O)n2CC1CCCOC1` (centres undefined), the logD is 2. The logD values of the last two compounds are within 0.2 log units of each other.

As for `Cc1ccc(Cn2c(=O)[nH]c3c(N)nc(C(F)(F)F)cc32)nc1`, the logD was found to be 2.2. On the same count and under the same terms, the value for `Cc1ncc(Cn2c(=O)[nH]c3c(N)nc(C(F)(F)F)cc32)cn1` was 1.6. For `Cc1cnc(Cn2c(=O)[nH]c3c(N)nc(C(F)(F)F)cc32)cn1`, the log distribution coefficient (logD) stood at 1.8. The same measure, in the same setting: for `Cc1cc(Cn2c(=O)[nH]c3c(N)nc(C(F)(F)F)cc32)no1` the value was 2.1; for `Cc1nc(Cn2c(=O)[nH]c3c(N)nc(C(F)(F)F)cc32)cs1`, 2.3. Regarding `Cc1nc(Cn2c(=O)[nH]c3c(N)nc(C(F)(F)F)cc32)co1`, the logD stood at 1.7. The same measure, in the same setting: the value for `Cc1ccc(Cn2c(=O)[nH]c3c(N)nc(-c4nc(C)co4)cc32)cn1` was 2.1; that for `Cc1ccc(Cn2c(=O)[nH]c3c(N)nc(-n4nccn4)cc32)cn1` was 1.6.

As for `Cc1ccc(Cn2c(=O)[nH]c3c(N)nc(OCC4CCN(C)CC4)cc32)cn1`, the logD stood at 0.2. Still for that read-out and setting: the value for `COCCCOc1cc2c([nH]c(=O)n2Cc2ccc(C)nc2)c(N)n1` was 1.8; that for `Cc1ccc(Cn2c(=O)[nH]c3c(N)nc(OCC4CCOC4)cc32)cn1` (centres undefined) was 1.8.

The next series can be described thus: Half life in rat cytosol.
Details: not given
It counts as ADME.
In turn, `Cc1ccc(Cn2c(=O)[nH]c3c(N)nc(C(F)(F)F)cc32)nc1` returned a half-life of 83 min. On the same count and under the same terms, for `Cc1cc(Cn2c(=O)[nH]c3c(N)nc(C(F)(F)F)cc32)no1` the value was more than 1000 min. Still for that read-out and setting: for `Cc1nc(Cn2c(=O)[nH]c3c(N)nc(C(F)(F)F)cc32)cs1` the value was more than 1000 min; for `Cc1nc(Cn2c(=O)[nH]c3c(N)nc(C(F)(F)F)cc32)co1`, more than 1000 min.

In the case of `Cc1ccc(Cn2c(=O)[nH]c3c(N)nc(-c4nc(C)co4)cc32)cn1`, the half-life is more than 1000 min.
